Measurements from patent US20120136033A1, “Small Molecule Antagonists of Phosphatidylinositol-3,4,5-Triphosphate (PIP3) and Uses Thereof” (President and Fellows of Harvard College, priority 2009, published 2012).

Experiments:
[1] = molecular target: T1, PDK1 PH domain (Homo sapiens, UniProt O15530); test: FP assay, PIP3 binding to PDK1 PH domain; details: 15 nM TMR-PIP3, 100 nM PDK1 PH domain, 0-200 μM
T1 construct: 100 nM 441-551 a.a. region of human PDK1; made in house; host or cells: E. coli BL21(DE3)
Procedure: FIG. 4 is a graph depicting concentration-dependent competitive inhibition of PIP3-PH domain interaction by PIT-1 and PIT-2. 15 nM TMR-conjugated PIP3 were incubated with 100 nM PDK1 PH domain in the presence or absence of the indicated concentrations of PITs (0-200 μM) for 30 min, followed by FP measurement.
In order to identify compounds that disrupt the interaction between PIP3 and PH domains, a high-throughput fluorescence polarization (FP)-binding assay was developed using recombinant 1-123 amino acid N-terminal fragment of human Akt1 (also referred to herein simply as Akt), encompassing the PH domain (PH123 protein), and fluorescent NBD-labeled PIP3 molecule. The amino acid sequence of human Akt1 is publicly available as, for example, GenBank Accession No. NP_001014432.1 (SEQ ID NO:1), and the corresponding DNA sequence is publicly available as, for example, GenBank Accession No. NM_001014432. Briefly, 5 μM recombinant GST fusion proteins containing 1-123 a.a. N-terminal fragment of human Akt1 (PH 123) or 100 nM 441-551 a.a. region of human PDK1 were incubated with 15 nM TMR-labeled PIP3, PIP2, or PIP5 in buffer containing 50 mM Tris-HCl (pH 7.5), 150 mM NaCl, and 5 mM b-ME for 15 min at room temperature in the dark. FP values were determined using Wallac Victor 3 plate reader. […]

[2] = molecular target: eIF-1 (Homo sapiens, UniProt P41567); test: NMR HSQC specificity control, eIF-1; assay type: binding
[3] = system: PI3K-PDK1-Akt signaling; test: PI3K-PDK1-Akt signaling in growth factor-stimulated SUM159 cells; assay type: cell-based, human
[4] = system: U87MG cells; test: U87MG cell viability, ATP assay; assay type: cell-based, human; details: for viability of U87MG cells: 12.5-100 μM, 48 hr, ATP assay
Procedure: U87MG cells were incubated with PITs (12.5-100 μM) for 48 hr. Cell viability was determined using ATP assay.
Based on the critical role of PIP3-dependent Akt signaling in the regulation of cell survival, the effect of PIT-1 on the cancer cell viability was tested. Cancer cells were seeded into 96-well plates (white plates for ATP assay; black plates for fluorescent assay; clear plates for MTS assay) at the density of 5-10×10^3 cells per well in 100 μl of the appropriate media. Compounds were added at a series of concentrations and incubated for different times. For the ATP assay, a luminescence-based commercial kit (CellTiter-Glo, Promega, Madison, Wis.) was used. Thirty microliters of cell lysis/ATP detection reagent was added to each well, mixed for 10 min at room temperature, and the luminescence was measured using a Wallac Victor 3 plate reader (Perkin-Elmer, Wellesley, Mass.). For the MTS assay, a CellTiter 96 AQueous Non-Radioactive Cell Proliferation Assay Kit (Promega, Madison, Wis., USA) was used. Twenty microliters of the combined MTS/PMS solution was added into each well, incubated for 4 hr at 37° C., and the absorbance at 490 nm was measured using a Wallac Victor 3 plate reader. For the Sytox cell death assay, measuring loss of plasma membrane integrity, cells were incubated with 1 μM Sytox Green reagent (Molecular Probes, Eugene, Oreg.) for 30 min at 37° C. and the fluorescence intensity was measured using Wallac Victor 3 plate reader with excitation at 485 nm and emission at 545 nm. Next, 5 μl of 20% (v/v) Triton X-100 solution was added to each well and incubated for 1 hr at 37° C., and the signal was measured again. The ratio of values (percentage of dead cells in each well) before and after Triton X-100 treatment was calculated and normalized to the relevant controls not subjected to the cytotoxic stimuli. IC50 values were determined using Origin6 software (MicroCal, LLC, Northampton, Mass.).

[5] = system: U87MG cells; test: sensitization of U87MG cells to killing by TRAIL, ATP assay; assay type: cell-based, human; details: 50 μM PITs or 10 μM Akt inhibitor VIII, 10 ng/ml TRAIL, 48 hr
Procedure: FIG. 10 is a bar graph depicting that PITs, as well as Akt inhibitor VIII, sensitize U87MG cells to killing by TRAIL. U87MG cells were incubated with 50 μM PIT-1, PIT-2, PIT-1i-1 or 10 μM Akt inhibitor VIII in the presence or absence of 10 ng/ml TRAIL for 48 hr, followed by cell viability analysis using ATP assay.
Based on the critical role of PIP3-dependent Akt signaling in the regulation of cell survival, the effect of PIT-1 on the cancer cell viability was tested. Cancer cells were seeded into 96-well plates (white plates for ATP assay; black plates for fluorescent assay; clear plates for MTS assay) at the density of 5-10×10^3 cells per well in 100 μl of the appropriate media. […] For the ATP assay, a luminescence-based commercial kit (CellTiter-Glo, Promega, Madison, Wis.) was used. Thirty microliters of cell lysis/ATP detection reagent was added to each well, mixed for 10 min at room temperature, and the luminescence was measured using a Wallac Victor 3 plate reader (Perkin-Elmer, Wellesley, Mass.). […] Twenty microliters of the combined MTS/PMS solution was added into each well, incubated for 4 hr at 37° C., and the absorbance at 490 nm was measured using a Wallac Victor 3 plate reader. […] Next, 5 μl of 20% (v/v) Triton X-100 solution was added to each well and incubated for 1 hr at 37° C., and the signal was measured again. […]

[6] = system: PI3K/PDK1/Akt signaling pathway; test: PI3K/PDK1/Akt signaling in HUVEC, Western blotting; assay type: cell-based, human; details: 50, 100, 200 μM, 2 hr, bFGF
Procedure: Endothelial cell migration plays a central role in tumor angiogenesis. Avraamides C J et al. (2008) Nat Rev Cancer 8:604-17. […] First, human umbilical vein endothelial cells (HUVEC) cells were serum starved overnight, and treated with different concentrations of PIT-1 (50, 100 and 200 μM) for 2 hr, followed by stimulation with 10 ng/ml bFGF for 15 min, and the PIP3-dependent phosphorylation events were evaluated by Western blotting.

[7] = system: rat aortic rings; test: rat aortic ring microvessel outgrowth assay; assay type: cell-based; details: 144 h; rat aortic rings in matrigel, 6 days, 3.125-100 μM; read-out: IC50, microvessel outgrowth in aortic ring sprouting
Procedure: For the aortic ring assay, aortas were isolated from 6-week old Sprague-Dawley rats and immediately transferred to a culture dish with serum-free medium. The fibroadipose tissue around the aortas was carefully removed and the aortas were cut into 1-mm long aortic ring fragments. After three consecutive washes in serum-free medium, the aortic rings were embedded into 70 μl Matrigel in 96-well plate and fed with 100 μl of serum-free M199 medium with or without PIT-1 at different concentrations (3.125-100 μM). The medium was replaced every 24 hr. Phase-contrast images were obtained on day 6, and the numbers of microvessel outgrowths per ring were counted.
Microvessel growth from rat aorta sections is the result of a combination of endothelial cell proliferation, migration, and tube formation, and thus provides a close approximation of in vivo angiogenesis. For this experiment the rat aortic rings were embedded in matrigel and then were treated with PIT-1 (3.125-100 μM) for 6 days, followed by counting the number of microvessel outgrowths under microscope.

T1 sequence (O15530 441-551): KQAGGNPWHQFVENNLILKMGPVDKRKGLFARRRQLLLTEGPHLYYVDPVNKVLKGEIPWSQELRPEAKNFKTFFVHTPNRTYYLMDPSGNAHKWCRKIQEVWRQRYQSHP
eIF-1, sequence (P41567 whole entry, species assumed): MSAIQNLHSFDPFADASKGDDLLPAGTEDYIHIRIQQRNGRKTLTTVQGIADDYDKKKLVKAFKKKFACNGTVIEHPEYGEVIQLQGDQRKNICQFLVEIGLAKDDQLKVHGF

O=C(NC(=S)Nc1cc([N+](=O)[O-])cc(Cl)c1O)c1ccccc1 [PIT-1]
inhibition of binding of PIP3 to the PH domain of PDK1 [1]: inhibited binding | changes in HSQC spectrum of eIF-1 [2]: did not elicit any changes | PI3K-PDK1-Akt signaling in SUM159 cells [3]: significantly suppressed | killing of U87MG cells compared with LY294002 [4]: more pronounced than that by the PI3K inhibitor LY294002 | viability of U87MG cells [4]: reduce viability | sensitization of U87MG cells to killing by TRAIL [5]: substantially sensitized | PI3K/PDK1/Akt signaling pathway in HUVEC [6]: capable of blocking | IC50 [7]: 4.58 µM

O=C1NC(=S)S/C1=C\c1cc(O)c([N+](=O)[O-])cc1Cc1ccccc1 [PIT-2]
inhibition of binding of PIP3 to the PH domain of PDK1 [1]: inhibited binding | viability of U87MG cells [4]: reduce viability
